# Literature values in US20070207452A1, “Method of detecting micronucleus in cell” (Olympus Corporation, priority 2004, published 2007).
# System: bacteria
# Conditions: background statement; carcinogenic substances detected by the chromosomal aberration test
row,SMILES,result in the reverse mutation test
1,c1ccccc1 [benzene],negative
2,CC/C(=C(/CC)c1ccc(O)cc1)c1ccc(O)cc1 [diethylstilbestrol],negative
